This note sets out measurements from ChEMBL document CHEMBL1154071, “Studies towards the identification of putative bioactive conformation of potent vasodilator arylidene N-acylhydrazone derivatives” (Eur J Med Chem, 2009).

Broadly, the IC50 is the concentration that gives 50% inhibition. What is called inhibition is the percentage by which the read-out fell short of the control.

For assay [1], the system named is Aorta. As to the kind of experiment: Vasorelaxant activity in endothelium-intact Wistar rat thoracic aortic ring assessed as inhibition of phenylephrine-induced contraction. Type of assay: functional, tissue-based.
Assay [2] deals with Aorta. As to the kind of experiment: Vasorelaxant activity in endothelium-intact Wistar rat thoracic aortic ring assessed as complete inhibition of phenylephrine-induced contraction at 20 uM in intact endothelium. Type of assay: functional, tissue-based.
Assay [3] has as its system Aorta. As to the kind of experiment: Vasorelaxant activity in endothelium-denuded Wistar rat thoracic aortic ring assessed as inhibition of phenylephrine-induced contraction. The assay is classed as functional, tissue-based.
The test system of assay [4] is Aorta. As to the kind of experiment: Vasorelaxant activity in endothelium-denuded Wistar rat thoracic aortic ring assessed as inhibition of phenylephrine-induced contraction at 500 uM. The assay is classed as functional.
Assay [5] relates to Aorta. As to the kind of experiment: Vasorelaxant activity in endothelium-intact Wistar rat thoracic aortic ring assessed as inhibition of phenylephrine-induced contraction at 500 uM. The assay is classed as functional.
Assay [6] has as its system Aorta. As to the kind of experiment: Vasorelaxant activity in endothelium-denuded Wistar rat thoracic aortic ring assessed as inhibition of phenylephrine-induced contraction at 200 uM. The assay is classed as functional.
For assay [7], the system named is Aorta. As to the kind of experiment: Vasorelaxant activity in endothelium-intact Wistar rat thoracic aortic ring assessed as inhibition of phenylephrine-induced contraction at 200 uM. The assay is classed as functional.
Assay [8] concerns the target T1, 3',5'-cyclic-AMP phosphodiesterase 4B (Homo sapiens, UniProt Q07343). As to the kind of experiment: Inhibition of PDE4B up to 30 uM.
Assay [9] deals with cGMP-dependent 3',5'-cyclic phosphodiesterase (Homo sapiens) (UniProt O00408). As to the kind of experiment: Inhibition of PDE2A up to 30 uM.
For assay [10], the target named is cGMP-specific 3',5'-cyclic phosphodiesterase (Homo sapiens) (UniProt O76074). As to the kind of experiment: Inhibition of PDE5 up to 30 uM.
Assay [11] concerns Aorta. As to the kind of experiment: Vasorelaxant activity in endothelium-denuded Wistar rat thoracic aortic ring assessed as inhibition of phenylephrine-induced contraction at 100 uM. The assay is classed as functional.
Assay [12] concerns the target T1, 3',5'-cyclic-AMP phosphodiesterase 4B. As to the kind of experiment: Inhibition of PDE4B.

Active and inactive are the calls of the source. No cut-off for these calls is given here.

cGMP-dependent 3',5'-cyclic phosphodiesterase (Homo sapiens), sequence (O00408 whole entry): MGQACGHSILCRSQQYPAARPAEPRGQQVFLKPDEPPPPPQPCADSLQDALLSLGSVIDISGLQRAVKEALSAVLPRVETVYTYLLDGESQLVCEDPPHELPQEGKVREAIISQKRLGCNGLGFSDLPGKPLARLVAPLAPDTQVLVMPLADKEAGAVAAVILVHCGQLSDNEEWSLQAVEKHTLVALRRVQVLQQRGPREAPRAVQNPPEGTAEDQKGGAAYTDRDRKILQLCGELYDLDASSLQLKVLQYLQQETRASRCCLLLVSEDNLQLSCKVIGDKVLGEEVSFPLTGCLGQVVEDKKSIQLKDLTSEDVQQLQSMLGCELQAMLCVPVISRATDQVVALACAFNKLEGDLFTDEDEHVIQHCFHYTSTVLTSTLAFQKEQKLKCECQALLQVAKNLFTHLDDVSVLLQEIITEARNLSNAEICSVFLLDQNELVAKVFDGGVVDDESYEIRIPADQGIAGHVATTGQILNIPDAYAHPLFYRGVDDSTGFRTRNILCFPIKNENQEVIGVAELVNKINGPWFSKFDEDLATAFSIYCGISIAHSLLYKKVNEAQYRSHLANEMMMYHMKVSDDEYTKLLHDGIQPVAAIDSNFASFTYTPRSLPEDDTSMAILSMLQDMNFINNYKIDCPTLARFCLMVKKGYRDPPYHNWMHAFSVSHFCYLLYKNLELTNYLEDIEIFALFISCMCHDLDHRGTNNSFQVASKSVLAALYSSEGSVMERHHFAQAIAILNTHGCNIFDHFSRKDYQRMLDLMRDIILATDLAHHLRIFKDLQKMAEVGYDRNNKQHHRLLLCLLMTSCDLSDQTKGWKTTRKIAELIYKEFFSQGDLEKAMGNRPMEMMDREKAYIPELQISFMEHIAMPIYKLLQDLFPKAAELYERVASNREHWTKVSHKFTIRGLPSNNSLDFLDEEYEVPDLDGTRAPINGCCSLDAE
T1 sequence (Q07343 whole entry): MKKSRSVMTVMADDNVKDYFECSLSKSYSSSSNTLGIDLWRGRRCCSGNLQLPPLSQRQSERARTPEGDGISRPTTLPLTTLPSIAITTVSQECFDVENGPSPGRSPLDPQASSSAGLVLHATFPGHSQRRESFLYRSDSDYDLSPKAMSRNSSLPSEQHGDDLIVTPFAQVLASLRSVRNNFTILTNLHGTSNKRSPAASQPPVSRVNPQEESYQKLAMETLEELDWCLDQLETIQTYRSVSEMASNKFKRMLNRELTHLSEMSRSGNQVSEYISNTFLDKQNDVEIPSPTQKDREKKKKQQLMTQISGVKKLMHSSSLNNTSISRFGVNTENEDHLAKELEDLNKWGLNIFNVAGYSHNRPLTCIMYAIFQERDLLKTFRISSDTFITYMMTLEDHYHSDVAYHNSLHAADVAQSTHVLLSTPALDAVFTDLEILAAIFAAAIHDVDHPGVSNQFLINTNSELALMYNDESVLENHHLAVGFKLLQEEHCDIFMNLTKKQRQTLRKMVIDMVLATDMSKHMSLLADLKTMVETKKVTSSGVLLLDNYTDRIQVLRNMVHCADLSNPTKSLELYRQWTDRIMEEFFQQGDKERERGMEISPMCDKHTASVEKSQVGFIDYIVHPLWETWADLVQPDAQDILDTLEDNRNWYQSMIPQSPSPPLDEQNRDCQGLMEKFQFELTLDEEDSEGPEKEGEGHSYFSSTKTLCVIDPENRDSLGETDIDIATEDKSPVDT

Turning to `CN(/N=C/c1ccccc1)C(=O)c1ccc2c(c1)OCO2`, the values for the IC50 in the assay with Aorta [1] and with Aorta [3] were 3.5 µM and 11.1 µM, respectively. For the same molecule, in the assay with Aorta [2], the outcome was Active.

Consider `O=C(N/N=C/c1ccccc1)c1ccc2c(c1)OCO2`, for which the IC50 with Aorta [1] is 81 µM. Besides, the figures for the inhibition at 500 µM in the assay with Aorta [4] and in the assay with Aorta [5] were under 50% and 70.7%, respectively.

As for `O=C(N/N=C/c1ccco1)c1ccc2c(c1)OCO2`, the inhibition at 500 µM in the assay on Aorta [4] and in the assay with Aorta [5] was under 50% each time.

As to `O=C(N/N=C/c1ccc[nH]1)c1ccc2c(c1)OCO2`, the inhibition at 200 µM in the assay on Aorta [6] and with Aorta [7] was under 50% in each case.

On to `CN(/N=C/c1ccco1)C(=O)c1ccc2c(c1)OCO2`, for which the concentration for half-maximal inhibition (IC50) in the assay on Aorta [1] worked out at 40.8 µM; with Aorta [3] it was 15.7 µM.

For `O=C(N/N=C/c1cccs1)c1ccc2c(c1)OCO2`, in the assay on Aorta [1], the Activity result was “Dose-dependent effect”. Moreover, the 50% inhibitory concentration (IC50) with Aorta [1] was found to be 74 µM. Further, the outcome in assay [8], in assay [9] and in [10] was inactive. Further, the inhibition at 100 µM in the assay with Aorta [11] is under 50%.

Turning to `CN(/N=C/c1ccc[nH]1)C(=O)c1ccc2c(c1)OCO2`, the IC50 in the assay with Aorta [1] came out at 3.1 µM; in the assay with Aorta [3] it was 17.8 µM.

Turning to `CN(/N=C/c1cccs1)C(=O)c1ccc2c(c1)OCO2`, the Activity result in the assay with Aorta [1] is “Dose-dependent effect”. Further, the concentration for half-maximal inhibition (IC50) in the assay on Aorta [1] was 10.2 µM; in [12], over 30 µM; in the assay on Aorta [3] it was 18.5 µM. For the same molecule, the result in [9] and in assay [10] was inactive.
